Measurements from patent EP0241291B1, “Aryl-substituted naphthyridine and pyridopyrazine derivatives” (SCHERING CORPORATION, priority 1986, dated 1987).

Tests used:
[1] = tested on: anaphylactic bronchospasm in sensitized guinea pigs; assay: Inhibition of anaphylactic bronchospasm in sensitized guinea pigs with antigen-induced bronchoconstriction; assay type: in vivo, male Hartley guinea pigs; conditions: Cavia porcellus, po; for ED50: 2 hours before challenge with ovalbumin, sensitized guinea pigs, read-out: ED50 (p.o.)-in anaphylactic bronchospasm test
Procedure: The compounds of this invention may be employed as anti-allergy agents in the treatment of, for example, asthma, allergic or seasonal rhinitis, and/or chronic bronchitis. The anti-allergy method of this invention is identified by tests which measure a compound's inhibition of anaphylactic bronchospasm in sensitized guinea pigs having antigen induced broncho-constriction.
In one such test procedure, male Hartley guinea pigs (250-300 g) are sensitized with 5 mg ovalbumin injected i.p. and 5 mg injected s.c. in 1 ml saline on day 1 and 5 mg ovalbumin injected i.p. on day 4. The sensitized animals are used 3-4 weeks later at which time they weigh 450-500 g.
The sensitized guinea pigs are fasted overnight and the following morning are anesthetized with 0.9 ml/kg i.p. of dialurethane (0.1 g/ml diallybarbituric acid, 0.4 g/ml ethylurea and 0.4 g/ml urethane). The trachea are cannulated and the animals are ventilated by a Harvard® rodent respirator at 50 strokes/minute with a stroke volume of 5 ml. A side arm to the tracheal cannula is connected to a pressure transducer (Harvard) to obtain a continuous measure of intratracheal pressure which is recorded on a polygraph (Harvard). The jugular vein is cannulated for the i.v. administration of substances. The animals are challenged with antigen (0.5% ovalbumin) as an aerosol generated from a DeVilbiss® Model 65 ultrasonic nebulizer and delivered through the tracheal cannula for 30 seconds. Bronchoconstriction is measured as the peak increase in intratracheal pressure occurring within 5 minutes after antigen challenge.
The sensitized guinea pigs are injected i.v. with 1 mg/kg propranolol, 5 mg/kg indomethacin and 2 mg/kg mepyramine given together in a volume of 1 ml/kg. Fifteen minutes later the animals are challenged with nebulized ovalbumin. Test compounds are administered orally 2 hours before challenge with ovalbumin. Suppression of anaphylactic bronchospasm is expressed as a percent inhibition of the peak increase in intratracheal pressure by comparison to a vehicle-treated control group.

[2] = tested on: Reversed Passive Arthus Response; assay: Reversed Passive Arthus Response (RPAR), paw volume; assay type: in vivo, Male Lewis inbred albino rats; conditions: 25 mg/kg p.o. once daily for 3 days, rats; for Percent Inhibition vs. Control at 2 hrs.: paw volume 2 hours post-challenge; for Percent Inhibition vs. Control at 4 hrs.: paw volume 4 hours post-challenge
Text: The compounds of this invention are also useful for the treatment of inflammation. Thus, they are useful in the treatment of arthritis, bursitis, tendonitis, gout and other physical conditions characterized by inflammation.
Reversed Passive Arthus Response (RPAR) Animals, Materials and Methods
Male Lewis inbred albino rats weighing 180-200 grams obtained from Charles River Breeding Laboratories are used in these experiments. The rats are housed 3 animals/cage and food and water are allowed ad libitum. The animals are numbered 1-3 in each cage and color marked for identification purposes.
All reagents and drugs are prepared just prior to the study. Crystallized and lyophilized bovine serum albumin (BSA), available from Sigma Chemical Company, is solubilized without shaking in cold, sterile, pyrogenfree saline (10 mg/ml). Lyophilized anti-bovine serum albumin (IgG fraction), obtained from Cappel Laboratories, is suspended in sterile distilled water and diluted with cold, pyrogen-free saline (PFS) just prior to use. The final concentration of anti-bovine serum albumin is 0.5. mg/ml of PFS. Both BSA and anti-BSA solutions are iced during use. Drugs are suspended or solubilized in an aqueous solution of methyl cellulose (MC) with an homogenizer just prior to administration.
Groups of animals (6/group) are dosed with drug in MC by gavage once daily for 3 days. The last dose is administered one hour prior to sensitization with BSA. Controls are given MC alone and a drug-standard is usually included in each assay for verification purposes. Drugs are prepared and diluted so as to provide a dose for a 200 gram animal which is equivalent to the mg/kg dose for each experiment. Thus each rat receives an oral dose in a volume of approximately 2.0 cc. One hour after the last dose the animals are lightly anesthetized with ether and "sensitized" by injection of 0.2 ml of PFS containing 1.0 mg of BSA into the penile vein. One hour later, the animals are "challenged" in the right rear paw with subplantar injections of […] PFS containing 0.1 mg of anti-BSA. Immediately after the subplantar injection, the right paw is dipped (up to the lateral maleolus) into the mercury well of a plethysmograph. The volume of mercury displaced is converted to weight and recorded. This value is considered to be the control reading for the animal. Paw volumes are subsequently recorded with a plethysmograph during the development of the inflammation at 2 and 4 hours post-challenge.
Results are expressed by the change in paw volume (Δ paw volume) from the control reading for each animal to that recorded 2 and 4 hours post-challenge. All drug treated groups are compared to the MC control for significant differences with an analysis of variance. Differences from control in drug-treated groups are expressed as percent change from control in Table II.

[3] = tested on: GRAFT VS. HOST REACTION (GVHR); assay: Graft vs. host reaction (GVHR), spleen weight; assay type: in vivo, C57 B1/6XA/J(B6AF1) male mice; conditions: 10 mg/kg orally for 10 days; GVHR mice
Procedure: To induce a GVHR, C57 B1/6XA/J(B6AF1) male mice were injected intravenously with parental (C57B1/6J) spleen and lymph node cells. The compound 1,2,3,4-tetrahydro-7-phenyl-oxepino[2,3-c][1,8]-naphthyridin-6(7H)-one (Compound A) was then administered orally for 10 days beginning on the day prior to the cell transfer. On the day following the last treatment, the animals were sacrificed, and their spleens were excised and weighed. The enlargement of the spleen of the host is a result of a GVHR. To some extent it is the host's own cells which infiltrate and enlarge the spleen although they do this because of the presence of graft cells reacting against the host. The amount of spleen enlargement, splenonmegaly, is taken as a measure of the severity of the GVHR.
In carrying out the GVHR the animal in the experimental group is injected with parental cells, cells of the same species but of different genotyne, which cause a weight increase of the spleen. […] The effectiveness of Compound A adminstered to the mice in the experimental group is measured by comparing the spleen weight of the untreated and treated GVH animal with that of the syngeneic control. Compound A reduced spleen weight by 61% as compared to the untreated animals at a dose of 10 mg/kg.

spleen weight = assay: Splenic atrophy test, decrease in spleen weight; assay type: in vivo; conditions: BDF₁ mice
Procedure: The immunosuppressive activity of the compounds may also be shown by a decrease in spleen weight after dosing BDF₁ mice orally with the drug for seven (7) consecutive days. The mice are sacrificed on the eighth day. The percent decrease in spleen weight is measured for each dosage level. In this procedure (Compound A) provided a 30% spleen weight decrease at a dosage level of 100 mg/kg.

[4] = tested on: reverse passive Arthus reaction in the pleural cavity of rats; assay: Reverse passive Arthus reaction in the pleural cavity; assay type: in vivo; conditions: Rattus norvegicus, po, method of Myers et al., read-out: ED₅₀ reverse passive Arthus reaction in the pleural cavity

SMILES	ED50 [1] [mg/kg]	ED30 ([1]; sensitized guinea pigs having antigen-induced bronchoconstriction, read-out: ED₃₀ inhibition of anaphylactic bronchospasm) [mg/kg]	Percent Inhibition vs. Control at 2 hrs. [2] [%]	Percent Inhibition vs. Control at 4 hrs. [2] [%]	reduced spleen weight as compared to the untreated animals [3] [%]	spleen weight decrease (spleen weight; 100 mg/kg orally for seven consecutive days) [%]	ED30 (spleen weight; Mus musculus, oral, seven consecutive days, read-out: ED₃₀ in the splenic atrophy test) [mg/kg]	ED50 [4] [mg/kg]
O=c1c2c(c3cccnc3n1-c1ccccc1)CCCCO2 [Compound 4, 1,2,3,4-tetrahydro-7-phenyl-oxepino[2,3-c][1,8]-naphthyridin-6(7H)-one]	1	~0.5	74	25	61	30	~100	~4.5
O=c1c2c(c3cccnc3n1-c1cccc(Cl)c1)CCCCO2 [Compound 3, 7-(3-Chlorophenyl)-1,2,3,4-tetrahydro-oxepino[2,3-c][1,8]-naphthyridin-6(7H)-one]	5							
O=c1c2c(c3cccnc3n1-c1ccccc1)CCCC2 [Compound 2, 7,8,9,10-Tetrahydro-5-phenyl-benzo[c][1,8]-naphthyridin-6-(5H)-one]	2		75	29				
O=c1c2c(c3cccnc3n1-c1cccc(Cl)c1)CCCC2 [Compound 1, 5-(3-Chlorophenyl)-7,8,9,10-tetrahydro-benzo[c][1,8]-naphthyridin-6(5H)-one]	2		64	30				
